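Tested at 5 concentrations; 48 h exposure; 96-well plates; endpoints linearly interpolated, else capped at highest concentration. The concentration for full growth arrest is given as TGI.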
Columns and labels:
Assay in all cases: inhibition of tumour cell growth, NCI panel, 48 h
UO-31 renal = system: UO-31 renal
MOLT-4 leukemia = system: MOLT-4 leukemia
NCI-H460 lung = system: NCI-H460 lung
KM12 colon = system: KM12 colon
U251 CNS = system: U251 CNS
LOX IMVI melanoma = system: LOX IMVI melanoma
MDA-MB-435 = system: MDA-MB-435
OVCAR-4 ovarian = system: OVCAR-4 ovarian
SK-MEL-2 melanoma = system: SK-MEL-2 melanoma
SN12C renal = system: SN12C renal
SNB-75 CNS = system: SNB-75 CNS
CAKI-1 renal = system: CAKI-1 renal
SF-295 CNS = system: SF-295 CNS
K-562 leukemia = system: K-562 leukemia
DU-145 prostate = system: DU-145 prostate
SF-268 CNS = system: SF-268 CNS
IGROV1 ovarian = system: IGROV1 ovarian
HCT-116 colon = system: HCT-116 colon
TK-10 renal = system: TK-10 renal
SR leukemia = system: SR leukemia
SNB-19 CNS = system: SNB-19 CNS
MDA-N = system: MDA-N
NCI-H226 lung = system: NCI-H226 lung
HT29 colon = system: HT29 colon
EKVX NSCLC = system: EKVX NSCLC
HOP-62 NSCLC = system: HOP-62 NSCLC
SK-MEL-28 melanoma = system: SK-MEL-28 melanoma
A498 renal = system: A498 renal
MCF7 breast = system: MCF7 breast
UACC-62 melanoma = system: UACC-62 melanoma
CCRF-CEM leukemia = system: CCRF-CEM leukemia
A549 NSCLC = system: A549 NSCLC
T-47D breast = system: T-47D breast
MDA-MB-231 breast = system: MDA-MB-231 breast
UACC-257 melanoma = system: UACC-257 melanoma
786-0 renal = system: 786-0 renal
ACHN renal = system: ACHN renal
HOP-92 NSCLC = system: HOP-92 NSCLC
OVCAR-5 ovarian = system: OVCAR-5 ovarian
SW-620 colon = system: SW-620 colon
COLO 205 colon = system: COLO 205 colon
OVCAR-3 ovarian = system: OVCAR-3 ovarian
HS 578T breast = system: HS 578T breast
BT-549 breast = system: BT-549 breast
SK-OV-3 ovarian = system: SK-OV-3 ovarian
RXF 393 renal = system: RXF 393 renal
PC-3 prostate = system: PC-3 prostate
HCT-15 colon = system: HCT-15 colon
NCI-H23 lung = system: NCI-H23 lung
RPMI-8226 leukemia = system: RPMI-8226 leukemia
OVCAR-8 ovarian = system: OVCAR-8 ovarian
SK-MEL-5 melanoma = system: SK-MEL-5 melanoma
MALME-3M melanoma = system: MALME-3M melanoma
M14 melanoma = system: M14 melanoma
NCI-H522 lung = system: NCI-H522 lung
NCI/ADR-RES ovarian = system: NCI/ADR-RES ovarian
HCC-2998 colon = system: HCC-2998 colon

CN(C(=O)Nc1ccc(Cl)c(Cl)c1)C1CCCC[C@@H]1N1CCCC1 (stereo partly specified)
TGI (UO-31 renal): 84.2 µM | TGI (MOLT-4 leukemia): 96.8 µM | TGI (NCI-H460 lung): > 100 µM | TGI (KM12 colon): > 100 µM | TGI (U251 CNS): > 100 µM | TGI (LOX IMVI melanoma): > 100 µM | TGI (MDA-MB-435): > 100 µM | TGI (OVCAR-4 ovarian): > 100 µM | TGI (SK-MEL-2 melanoma): > 100 µM | TGI (SN12C renal): > 100 µM | TGI (SNB-75 CNS): > 100 µM | TGI (CAKI-1 renal): > 100 µM | TGI (SF-295 CNS): > 100 µM | TGI (K-562 leukemia): > 100 µM | TGI (DU-145 prostate): > 100 µM | TGI (SF-268 CNS): 94.7 µM | TGI (IGROV1 ovarian): > 100 µM | TGI (HCT-116 colon): > 100 µM | TGI (TK-10 renal): > 100 µM | TGI (SR leukemia): > 100 µM | TGI (SNB-19 CNS): > 100 µM | TGI (MDA-N): > 100 µM | TGI (NCI-H226 lung): 39.5 µM | TGI (HT29 colon): > 100 µM | TGI (EKVX NSCLC): > 100 µM | TGI (HOP-62 NSCLC): > 100 µM | TGI (SK-MEL-28 melanoma): 47.6 µM | TGI (A498 renal): 55.9 µM | TGI (MCF7 breast): 87.4 µM | TGI (UACC-62 melanoma): 40.2 µM | TGI (CCRF-CEM leukemia): > 100 µM | TGI (A549 NSCLC): > 100 µM | TGI (T-47D breast): > 100 µM | TGI (MDA-MB-231 breast): > 100 µM | TGI (UACC-257 melanoma): 39.4 µM | TGI (786-0 renal): > 100 µM | TGI (ACHN renal): > 100 µM | TGI (HOP-92 NSCLC): > 100 µM | TGI (OVCAR-5 ovarian): > 100 µM | TGI (SW-620 colon): > 100 µM | TGI (COLO 205 colon): 35.7 µM | TGI (OVCAR-3 ovarian): > 100 µM | TGI (HS 578T breast): 73.9 µM | TGI (BT-549 breast): > 100 µM | TGI (SK-OV-3 ovarian): > 100 µM | TGI (RXF 393 renal): > 100 µM | TGI (PC-3 prostate): > 100 µM | TGI (HCT-15 colon): > 100 µM | TGI (NCI-H23 lung): > 100 µM | TGI (RPMI-8226 leukemia): 64.1 µM | TGI (OVCAR-8 ovarian): > 100 µM | TGI (SK-MEL-5 melanoma): 30.6 µM | TGI (MALME-3M melanoma): 37.8 µM | TGI (M14 melanoma): 36.1 µM | TGI (NCI-H522 lung): > 100 µM | TGI (NCI/ADR-RES ovarian): > 100 µM

CCOC(=O)Nc1cc(NC(/C=N/NC(C)=O)C(=O)OCC)c(OC)cc1NC(C)=O (stereo unspecified)
TGI (UO-31 renal): > 100 µM | TGI (MOLT-4 leukemia): > 100 µM | TGI (NCI-H460 lung): > 100 µM | TGI (KM12 colon): > 100 µM | TGI (U251 CNS): > 100 µM | TGI (MDA-MB-435): > 100 µM | TGI (OVCAR-4 ovarian): > 100 µM | TGI (SK-MEL-2 melanoma): > 100 µM | TGI (SN12C renal): > 100 µM | TGI (SNB-75 CNS): > 100 µM | TGI (CAKI-1 renal): > 100 µM | TGI (SF-295 CNS): > 100 µM | TGI (K-562 leukemia): > 100 µM | TGI (DU-145 prostate): > 100 µM | TGI (SF-268 CNS): > 100 µM | TGI (IGROV1 ovarian): > 100 µM | TGI (HCT-116 colon): > 100 µM | TGI (TK-10 renal): > 100 µM | TGI (SR leukemia): > 100 µM | TGI (SNB-19 CNS): > 100 µM | TGI (MDA-N): > 100 µM | TGI (NCI-H226 lung): > 100 µM | TGI (HT29 colon): > 100 µM | TGI (EKVX NSCLC): > 100 µM | TGI (HOP-62 NSCLC): > 100 µM | TGI (SK-MEL-28 melanoma): > 100 µM | TGI (A498 renal): > 100 µM | TGI (MCF7 breast): > 100 µM | TGI (UACC-62 melanoma): > 100 µM | TGI (CCRF-CEM leukemia): > 100 µM | TGI (A549 NSCLC): > 100 µM | TGI (T-47D breast): > 100 µM | TGI (MDA-MB-231 breast): > 100 µM | TGI (UACC-257 melanoma): > 100 µM | TGI (786-0 renal): > 100 µM | TGI (ACHN renal): > 100 µM | TGI (HOP-92 NSCLC): > 100 µM | TGI (OVCAR-5 ovarian): > 100 µM | TGI (HCC-2998 colon): > 100 µM | TGI (SW-620 colon): > 100 µM | TGI (COLO 205 colon): > 100 µM | TGI (OVCAR-3 ovarian): > 100 µM | TGI (HS 578T breast): > 100 µM | TGI (BT-549 breast): > 100 µM | TGI (SK-OV-3 ovarian): > 100 µM | TGI (RXF 393 renal): > 100 µM | TGI (PC-3 prostate): > 100 µM | TGI (HCT-15 colon): > 100 µM | TGI (NCI-H23 lung): > 100 µM | TGI (RPMI-8226 leukemia): > 100 µM | TGI (OVCAR-8 ovarian): > 100 µM | TGI (SK-MEL-5 melanoma): > 100 µM | TGI (MALME-3M melanoma): > 100 µM | TGI (M14 melanoma): > 100 µM | TGI (NCI/ADR-RES ovarian): > 100 µM
